# In the supplement of paper PMC12613149:
# What was measured:
# [1] = reversed-phase LC retention time (C18, 15 min MeOH gradient); higher = more hydrophobic / later elution
# [2] = collision cross section (TIMS, N2 drift gas) of the primary ion; higher = larger gas-phase ion size
# [3] = ionization mode: ESI-, ion species: [M-H]-
# [4] = ionization mode: ESI+, ion species: [M+H]+
# [5] = ionization mode: ESI+, ion species: [M]+
Structure (SMILES),"reversed-phase LC retention time [1, 4] [min]","collision cross section [2, 4] [Å²]","reversed-phase LC retention time [1, 5] [min]","collision cross section [2, 5] [Å²]","reversed-phase LC retention time [1, 3] [min]","collision cross section [2, 3] [Å²]"
O=C(O)C(F)(F)C(F)(F)C(F)(F)C(F)(F)C(F)(F)C(F)(F)C(F)(F)F [Perfluorooctanoic acid],–,–,–,–,14.7,155.67
CC/C(=C(/CC)c1ccc(O)cc1)c1ccc(O)cc1 [Diethylstilbestrol],–,–,–,–,14.5,175.03
O=C(NC(=O)c1c(F)cccc1F)Nc1ccc(Oc2ccc(C(F)(F)F)cc2Cl)cc1F [Flufenoxuron],17.4,204.54,–,–,17.8,215.68
C#C[C@]1(O)C=C[C@H]2[C@@H]3CCC4=CC(=O)CC[C@@H]4[C@H]3CC[C@@]21CC [Gestoden],14,181.55,–,–,–,–
CCNc1nc(Cl)nc(NC(C)(C)C)n1 [Terbuthylazine],14,153.3,–,–,–,–
O=C(NC1CCCCC1)NC1CCCCC1 [Dicyclohexylurea],13.9,160.65,–,–,14.3,163.68
CS(=O)(=O)c1ccc(C(=O)C2C(=O)CCCC2=O)c(Cl)c1 [Sulcotrione],11.1,175.92,–,–,6.87,173.26
O=S(=O)(O)C(F)(F)C(F)(F)C(F)(F)C(F)(F)C(F)(F)C(F)(F)F [Perfluorohexanesulfonic acid],–,–,–,–,13.9,150.32
CN1C(=O)CN=C(c2ccccc2)c2cc(Cl)ccc21 [Diazepam],14.2,165.95,–,–,–,–
C[C@]12CCC(=O)C=C1CC[C@@H]1[C@@H]2CC[C@@]2(C)[C@H]1CC[C@]2(C)O [17alpha-Methyltestosterone],14.7,178.22,–,–,–,–
O=S(=O)(O)C(F)(F)C(F)(F)C(F)(F)C(F)(F)F [Perfluorobutanesulfonic acid],–,–,–,–,11.3,132.6
CC[C@H]1CCC[C@H](O[C@H]2CC[C@H](N(C)C)[C@@H](C)O2)[C@@H](C)C(=O)C2=C[C@@H]3[C@@H](C=C[C@@H]4C[C@@H](O[C@@H]5O[C@@H](C)[C@H](OC)[C@@H](OC)[C@H]5OC)C[C@@H]34)[C@@H]2CC(=O)O1 [Spinosyn A],15.9,267.49,–,–,–,–
O=C(Nc1ccccc1)NC1CCCCC1 [1-Cyclohexyl-3-phenylurea],13.2,154.52,–,–,–,–
CC(Oc1ccc(Oc2cnc3cc(Cl)ccc3n2)cc1)C(=O)O (stereo unspecified) [Quizalofop],–,–,–,–,13.5,192.68

# Continued, in another order:
"reversed-phase LC retention time [1, 4] [min]","collision cross section [2, 4] [Å²]","reversed-phase LC retention time [1, 5] [min]","collision cross section [2, 5] [Å²]",Structure (SMILES),"reversed-phase LC retention time [1, 3] [min]","collision cross section [2, 3] [Å²]"
9.65,152.13,–,–,NC(N)=NC(=O)Cc1c(Cl)cccc1Cl [Guanfacine],–,–
14,217.22,–,–,N[C@@H](Cc1cc(I)c(Oc2cc(I)c(O)c(I)c2)c(I)c1)C(=O)O [L-Thyroxine],13.4,208.7
15.2,180.55,–,–,CCOC(=O)NCCOc1ccc(Oc2ccccc2)cc1 [Fenoxycarb],–,–
13.3,178.07,–,–,COCCCCC(=NOCCN)c1ccc(C(F)(F)F)cc1 [Fluvoxamine],–,–
7.48,124.14,–,–,[O-][n+]1cccc2ccccc21 [Quinoline N-oxide],–,–
11.4,191.29,–,–,COc1cc(C[C@H]2COC(=O)[C@@H]2Cc2ccc(O)c(OC)c2)ccc1O [Matairesinol],11.6,176.96
–,–,16.5,187.45,CCCCCCCCCCCCCC[N+](C)(C)C [Tetradecyltrimethylammonium],–,–
6.95,151.98,–,–,Cc1c(N(C)C)c(=O)n(-c2ccccc2)n1C [Dimethylaminophenazone],–,–
7.4,226.35,–,–,CC1(C)CC(N(C=O)CCCCCCN(C=O)C2CC(C)(C)NC(C)(C)C2)CC(C)(C)N1 [Univul-4050H],–,–
